# From US10399932B2, “Inhibitors of indoleamine-2,3-dioxygenase for the treatment of cancer” (BRISTOL-MYERS SQUIBB COMPANY, priority 2015, dated 2019)
# Target: human IDO1 (Homo sapiens, UniProt P14902)
# Assay: Assessment of human IDO-1 inhibitory activity in HEK cells (human IDO1/HEK293 cells, Ehrlich reagent, absorbance at 490 nm)
# Type: cell-based
# Design: expressed in transfected cells
# Settings: In Vitro Potency in the HEK Human IDO-1 Cellular Assay
# Procedure, shortened: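 Stable human IDO1-expressing HEK293 cells treated with compound for 20 h at 37 °C in phenol red-free RPMI/10% FBS. Stopped with 0.2% TCA (final) and heated 30 min at 50 °C; supernatant mixed with Ehrlich reagent, absorbance read at 490 nm. IC50 normalised to DMSO (0%) and 500 nM reference standard (100% inhibition).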
# Chain of human IDO1 (P14902 whole entry): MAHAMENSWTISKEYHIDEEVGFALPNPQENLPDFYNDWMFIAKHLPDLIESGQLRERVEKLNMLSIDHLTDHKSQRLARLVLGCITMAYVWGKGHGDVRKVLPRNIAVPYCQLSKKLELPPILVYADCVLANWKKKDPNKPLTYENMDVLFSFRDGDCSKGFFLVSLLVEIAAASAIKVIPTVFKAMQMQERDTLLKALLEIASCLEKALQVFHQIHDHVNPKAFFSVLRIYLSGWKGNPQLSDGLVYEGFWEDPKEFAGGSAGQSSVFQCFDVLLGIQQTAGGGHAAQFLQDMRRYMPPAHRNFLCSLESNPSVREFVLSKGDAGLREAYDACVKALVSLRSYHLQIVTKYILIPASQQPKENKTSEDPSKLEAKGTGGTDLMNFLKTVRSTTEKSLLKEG
row,IC50 [nM],Compound
1,< 5,"CCOc1ncc(Nc2cc(C(CC)CC(=O)O)ccc2N(CC(C)C)C2CCCCC2)cn1 (single isomer, unassigned) [Example 303, 3-(4-(cyclohexyl(isobutyl)amino)-3-((2-ethoxypyrimidin-5-yl)amino)phenyl)pentanoic acid]"
2,< 5,CCC(CC(=O)O)c1cc(F)c(N(CC(C)C)C2CCCCC2)c(NC(=O)Nc2ccc(C)cc2)c1 (racemic) [Example 1091]
3,< 5,"CCOc1ccc(CC(=O)Nc2cc(C(CC(=O)O)C3CC3)ccc2N(CC(C)C)C2CCCCC2)cc1 (single isomer, unassigned) [Example 1250, 3-(4-(Cyclohexyl(isobutyl)amino)-3-(2-(4-ethoxyphenyl)acetamido)phenyl)-3-cyclopropylpropanoic acid]"
4,> 50,"CCC(CC(=O)O)c1cc(F)c(N(CC(C)C)CC(C)C)c(Nc2ccc(OCC(F)(F)F)cc2)c1 (single isomer, unassigned) [Example 114, 3-(4-(diisobutylamino)-3-fluoro-5-((4-(2,2,2-trifluoroethoxy)phenyl)amino)phenyl)pentanoic acid]"
5,< 5,"COCC(CC(=O)O)c1ccc(N(CC(C)C)C2CCCCC2)c(NC(=O)Nc2ccc(Cl)cc2F)c1 (single isomer, unassigned) [Example 985-2]"
6,< 5,"Cc1ccc(NC(=O)Nc2cc(C(CC(=O)O)C3CC3)ccc2N(CC(C)C)C2CCOCC2)cc1 (single isomer, unassigned) [1202 E2]"
7,< 5,"CCC(CC(=O)O)c1ccc(N(CC(C)C)C2CCCCC2)c(Nc2cnc(OC(C)C)nc2)c1 (single isomer, unassigned) [Example 655, 3-(4-(cyclohexyl(isobutyl)amino)-3-((2-isopropoxypyrimidin-5-yl)amino)phenyl)pentanoic acid]"
8,< 5,"CCOc1ccc(NC(=O)Nc2cc(C(CC)CC(=O)O)c(F)cc2N(CC(C)C)CC(C)C)c(F)c1 (single isomer, unassigned) [Example 1139, 3-(4-(Diisobutylamino)-5-(3-(4-ethoxy-2-fluorophenyl)ureido)-2-fluorophenyl) pentanoic acid]"
9,> 50,"CC(C)C(CC(=O)O)c1ccc(N(C)C(C)(C)C)c(Nc2nc3ccccc3o2)c1 (single isomer, unassigned) [Example 1008-2]"
10,> 50,"CC(CC(=O)O)c1ccc(N2CCC[C@H]2C(C)(C)O)c(Nc2ccc(C#N)cc2)c1 (single isomer, unassigned) [Example 802]"
11,< 5,"CCC(CC(=O)O)c1cc(F)c(N(CC(C)C)CC(C)C)c(Nc2ccc(F)cc2)c1 (single isomer, unassigned) [Example 116, 3-(4-(diisobutylamino)-3-fluoro-5-((4-fluorophenyl)amino)phenyl)pentanoic acid]"
12,< 50,"COCC(CC(=O)O)c1cc(F)c(N(CC(C)C)CC(C)C)c(NC(=O)Nc2cc(C)on2)c1 (single isomer, unassigned) [Example 1188, 3-(4-(Diisobutylamino)-3-fluoro-5-(3-(5-methylisoxazol-3-yl)ureido)phenyl)-4-methoxybutanoic acid]"
13,> 50,"Cc1ccc(CC(=O)Nc2cc(C(CC(=O)O)C(C)C)ccc2N(C)C(C)(C)C)cc1 (single isomer, unassigned) [Example 1007-2]"
14,> 50,"CCc1cnc(Nc2cc([C@@H](CC)CC(=O)O)ccc2N(CC)C2CCCCC2)nc1 (single isomer, unassigned) [Example 280]"
15,< 5,"CCC(CC(=O)O)c1ccc(N(CC2CC2)C2CCOCC2)c(Nc2ccc(C#N)cc2)c1 (single isomer, unassigned) [Example 712, 3-(3-((4-cyanophenyl)amino)-4-((cyclopropylmethyl)(tetrahydro-2H-pyran-4-yl)amino)phenyl)pentanoic acid]"
16,< 5,"CCC(CC(=O)O)c1cc(F)c(N(CC(C)C)CC(C)C)c(Nc2ccc3c(c2)OC(F)(F)O3)c1 (single isomer, unassigned) [Example 117, 3-(3-((2,2-difluorobenzo [d][1,3]dioxol-5-yl)amino)-4-(diisobutylamino)-5-fluorophenyl)pentanoic acid]"
17,> 50,"CCN(c1ccc(C(CC(=O)O)c2ccccc2)cc1NC(=O)Nc1ccc(OC)cc1F)C1CCOCC1 (single isomer, unassigned) [Example 596, 3-(4-(ethyl(tetrahydro-2H-pyran-4-yl)amino)-3-(3-(2-fluoro-4-methoxyphenyl)ureido)phenyl)-3-phenylpropanoic acid]"
18,> 50,"CC(CC(=O)O)c1ccc(N2C[C@@H](C)O[C@@H](C)C2)c(Nc2ccc(C#N)cc2)c1 (single isomer, unassigned) [Example 743]"

row,IC50 [nM],Compound
1,< 5,"COCC(CC(=O)O)c1ccc(N(CC(C)C)CC(C)C)c(NC(=O)Nc2ccc(Cl)cc2F)c1 (single isomer, unassigned) [Example 995-2]"
2,< 5,"CCOc1ccc(NC(=O)Nc2cc(C(CC)CC(=O)O)c(F)cc2N(CC(C)C)CC(C)C)cc1 (single isomer, unassigned) [Example 1133, 3-(4-(Diisobutylamino)-5-(3-(4-ethoxyphenyl)ureido)-2-fluorophenyl)pentanoic acid]"
3,< 50,"Cc1cc(NC(=O)Nc2cc(C(CC(=O)O)C3CC3)ccc2N(CC(C)C)C2CCOCC2)no1 (single isomer, unassigned) [Example 1201 Enantiomer 2, 3-Cyclopropyl-3-(4-(isobutyl(tetrahydro-2H-pyran-4-yl)amino)-3-(3-(5-methylisoxazol-3-yl)ureido)phenyl)propanoic acid]"
4,< 5,"COCC(CC(=O)O)c1cc(F)c(N(CC(C)C)CC(C)C)c(NC(=O)Cc2ccc(Cl)cc2F)c1 (single isomer, unassigned) [Example 1187, 3-(3-(2-(4-Chloro-2-fluorophenyl)acetamido)-4-(diisobutylamino)-5-fluorophenyl)-4-methoxybutanoic acid]"
5,> 50,"CCC(CC(=O)O)c1cc(F)c(N(CC(C)C)CC(C)C)c(Nc2ccnc(N3CCOCC3)n2)c1 (single isomer, unassigned) [Example 121, 3-(4-(diisobutylamino)-3-fluoro-5-((2-morpholinopyrimidin-4-yl)amino)phenyl) pentanoic acid]"
6,< 5,"CCC(CC(=O)O)c1ccc(N(CC(C)C)C2CCCCC2)c(Nc2ccc(Cl)c(OCC(F)F)c2)c1 (single isomer, unassigned) [Example 650, 3-(3-((4-chloro-3-(2,2-difluoroethoxy)phenyl)amino)-4-(cyclohexyl(isobutyl)amino)phenyl)pentanoic acid]"
7,< 5,"CCOc1ccc(NC(=O)Nc2cc(C(CC)CC(=O)O)c(F)cc2N(CC(C)C)C2CCCCC2)c(F)c1 (single isomer, unassigned) [Example 1118, 3-(4-(Cyclohexyl(isobutyl)amino)-5-(3-(4-ethoxy-2-fluorophenyl)ureido)-2-fluorophenyl)pentanoic acid]"
8,< 5,"CCC(CC(=O)O)c1ccc(N(CC(C)C)C2CCCCC2)c(Nc2ccc(F)c(F)c2)c1 (single isomer, unassigned) [Example 306, 3-(4-(cyclohexyl(isobutyl)amino)-3-((3,4-difluorophenyl)amino)phenyl)pentanoic acid]"
9,< 5,"CCC(CC(=O)O)c1cc(NC(=O)Nc2ccc3c(c2)OCO3)c(N(CC(C)C)CC(C)C)cc1F (single isomer, unassigned) [Example 1136, 3-(5-(3-(Benzo[d][1,3]dioxol-5-yl)ureido)-4-(diisobutylamino)-2-fluorophenyl) pentanoic acid]"
10,< 5,"COCC(CC(=O)O)c1ccc(N(CC(C)C)C2CCC(OC)CC2)c(NC(=O)Nc2ccc(Cl)cc2F)c1 (racemic) [Example 1006, (+/−)-3-(3-(3-(4-Chloro-2-fluorophenyl)ureido)-4-(isobutyl((1r,4r)-4-methoxycyclohexyl)amino)phenyl)-4-methoxybutanoic acid]"
11,< 50,"COCC(CC(=O)O)c1ccc(N(CC(C)C)CC(C)C)c(NC(=O)Nc2cc(C)on2)c1 (single isomer, unassigned) [Example 999-2]"
12,> 50,"CCC(CC(=O)O)c1cc(F)c(N(CC(C)C)CC(C)C)c(Nc2ccc3nc(C)sc3c2)c1 (single isomer, unassigned) [Example 111, 3-(4-(diisobutylamino)-3-fluoro-5-((2-methylbenzo [d]thiazol-6-yl)amino)phenyl)pentanoic acid]"
13,< 5,"CCC(CC(=O)O)c1cc(NC(=O)Nc2cc(C)no2)c(N(CC(C)C)C2CCCCC2)cc1F (single isomer, unassigned) [Example 1115, 3-(4-(Cyclohexyl(isobutyl)amino)-2-fluoro-5-(3-(3-methylisoxazol-5-yl)ureido)phenyl)pentanoic acid]"
14,< 5,"CCC(CC(=O)O)c1ccc(N(CC2CC2)C2CCOCC2)c(Nc2ccc(Cl)cc2)c1 (single isomer, unassigned) [Example 708, 3-(3-((4-chlorophenyl)amino)-4-((cyclopropylmethyl)(tetrahydro-2H-pyran-4-yl)amino)phenyl)pentanoic acid]"
15,> 50,"COCC(CC(=O)O)c1ccc(N(CC(C)C)C2CCOCC2)c(NC(=O)Nc2ccc(OC(F)(F)F)cc2)c1 (single isomer, unassigned) [Example 1218, 3-(4-(Isobutyl(tetrahydro-2H-pyran-4-yl)amino)-3-(3-(4-(trifluoromethoxy)phenyl)ureido)phenyl)-4-methoxybutanoic acid]"
16,< 5,"Cc1ccc(NC(=O)Nc2cc(C(CC(=O)O)C3CC3)ccc2N(CC(C)C)C2CCOCC2)cc1 (single isomer, unassigned) [1202 E1]"
17,< 5,"CC(CC(=O)O)c1ccc(N(CC(C)(C)O)C2CCOCC2)c(Nc2ccc(Cl)cc2)c1 (single isomer, unassigned) [Example 193, 3-(3-((4-chlorophenyl)amino)-4-((2-hydroxy-2-methylpropyl)(tetrahydro-2H-pyran-4-yl)amino)phenyl)butanoic acid]"
